How the values were obtained:
[1] = tested on: BHT-101 (Thyroid Gland Carcinoma); assay: Bliss excess, mean over the matrix (fraction); higher = more synergy
Summary of the method: (§1)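 Cell lines grown in DMEM/F12 or RPMI with 10% FBS were plated in 1536-well plates and held 24 hours at 37°C, 5% CO2 before 72 hours of exposure to two-drug dose matrices, with DMSO typically at 0.2%. CellTiter-Glo 2.0 luminescence gave viability, which was converted to inhibition. Vehicle wells were set to 0 and blank wells to 1. Combination Emax is the second-highest inhibition in the matrix, and Bliss excess is the observed combination effect minus the expected EA + EB − EA·EB, where EA and EB are the single-agent effects.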

[2] = tested on: NCI-H596 (Other Solid Carcinomas); assay: as above
Summary of the method: as §1

[3] = tested on: SCC-4 (Oral Cavity Carcinoma); assay: as above
Summary of the method: as §1

[4] = tested on: MONO-MAC-6 (Acute Myeloid Leukemia); assay: as above
Summary of the method: as §1

[5] = tested on: C-33-A (Cervical Carcinoma); assay: as above
Summary of the method: as §1

[6] = tested on: KP-4 (Pancreatic Carcinoma); assay: as above
Summary of the method: as §1

[7] = tested on: MOLT-13 (T-Lymphoblastic Leukemia); assay: as above
Summary of the method: as §1

[8] = tested on: T84 (Colorectal Carcinoma); assay: as above
Summary of the method: as §1

[9] = tested on: SiHa (Cervical Carcinoma); assay: as above
Summary of the method: as §1

[10] = tested on: TUR (Acute Myeloid Leukemia); assay: as above
Summary of the method: as §1

KALS-1 (Glioblastoma) = assay: as above
Summary of the method: as §1

[11] = tested on: SNU-407 (Colorectal Carcinoma); assay: as above
Summary of the method: as §1

[12] = tested on: LS-1034 (Colorectal Carcinoma); assay: as above
Summary of the method: as §1

[13] = tested on: NCI-H1963 (Small Cell Lung Carcinoma); assay: as above
Summary of the method: as §1

ES6 (Ewing's Sarcoma) = assay: as above
Summary of the method: as §1

[14] = tested on: OVCAR-3 (Ovarian Carcinoma); assay: as above
Summary of the method: as §1

[15] = tested on: SAT (Head and Neck Carcinoma); assay: as above
Summary of the method: as §1

[16] = tested on: Raji (Burkitt's Lymphoma); assay: combination Emax (second highest fraction inhibited in the dose matrix, 72 h); higher = more inhibition; extreme values may be limits of the assay
Summary of the method: as §1

IST-MEL1 (Melanoma) = assay: as above
Summary of the method: as §1

[17] = tested on: IA-LM (Non-Small Cell Lung Carcinoma); assay: as above
Summary of the method: as §1
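Wherever Bliss excess, mean over the matrix is given: after 72 h of two-drug dosing.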

| SMILES | Bliss excess [1] | Bliss excess [2] | Bliss excess [3] | Bliss excess [4] | Bliss excess [5] | Bliss excess [6] | Bliss excess [7] | Bliss excess [8] | Bliss excess [9] | Bliss excess [10] | Bliss excess (KALS-1 (Glioblastoma)) | Bliss excess [11] | Bliss excess [12] | Bliss excess [13] | Bliss excess (ES6 (Ewing's Sarcoma)) | Bliss excess [14] | Bliss excess [15] | combination Emax [16] | combination Emax (IST-MEL1 (Melanoma)) | combination Emax [17] |
| --- | --- | --- | --- | --- | --- | --- | --- | --- | --- | --- | --- | --- | --- | --- | --- | --- | --- | --- | --- | --- |
| Cc1c2c(nn1C)CSCc1cc(n(C)n1)CSc1cc(c3ccccc3c1)OCCCc1c(C(=O)O)n(C)c3c-2c(Cl)ccc13 [AZD5991] + C=CCn1c(=O)c2cnc(Nc3ccc(N4CCN(C)CC4)cc3)nc2n1-c1cccc(C(C)(C)O)n1 [AZD1775] (first compound max 1 µM, partner max 1 µM) | 0.0811 | -0.0682 | 0.0917 | -0.0256 | -0.0556 | -0.0245 | -0.0071 | -0.0287 | -0.0646 | 0.0189 | -0.0169 | -0.0183 | -0.098 | 0.0006 | 0.0814 | 0.031 | 0.0173 | 0.916 | 0.556 | 0.265 |
| CCN(CCO)CCCOc1ccc2c(Nc3cc(CC(=O)Nc4cccc(F)c4)[nH]n3)ncnc2c1 [AZD2811] + C=CCn1c(=O)c2cnc(Nc3ccc(N4CCN(C)CC4)cc3)nc2n1-c1cccc(C(C)(C)O)n1 [AZD1775] (first compound max 1 µM, partner max 1 µM) | 0.0043 | 0.0114 | -0.0024 | 0.0263 | 0.0111 | 0.0441 | 0.0166 | -0.0627 | 0.0089 | 0.117 | -0.0307 | -0.015 | 0.0033 | -0.0448 | -0.0792 | -0.0154 | 0.033 | 0.667 | 0.504 | 0.166 |
| C[C@@H](c1ccc2nccn2c1)n1nnc2ncc(-c3cnn(C)c3)nc21 [Savolitinib] + CC1(C)CCC(CN2CCN(c3ccc(C(=O)NS(=O)(=O)c4ccc(NCC5CCOCC5)c([N+](=O)[O-])c4)c(Oc4cnc5[nH]ccc5c4)c3)CC2)=C(c2ccc(Cl)cc2)C1 [Venetoclax] (first compound max 1 µM, 7x7, partner max 1 µM) | -0.0341 | -0.0369 | -0.0649 | 0.0005 | -0.0466 | -0.0556 | -0.0181 | -0.0649 | -0.0536 | -0.0452 | -0.0571 | -0.0299 | -0.0465 | -0.0237 | -0.0344 | -0.0399 | -0.131 | 0.171 | 0.124 | 0.197 |
| CN(CCO)CC[C@H](CSc1ccccc1)Nc1ccc(S(=O)(=O)NC(=O)c2ccc(N3CCC([C@@H](O)c4ccccc4-c4ccc(Cl)cc4)CC3)cc2)cc1S(=O)(=O)C(F)(F)F [AZD4320] + CN(C)CCCOc1ccc(-c2ccc3ncc4c(c3c2)n(C2CCOCC2)c(=O)n4C)cn1 [AZD0156] (first compound max 1 µM, 7x7, partner max 1 µM) | -0.0193 | -0.0184 | -0.0341 | 0.0324 | -0.0302 | -0.0604 | 0.0257 | -0.0243 | -0.0537 | -0.0023 | -0.0076 | -0.0555 | -0.0386 | 0.0708 | -0.0314 | -0.0407 | -0.0214 | 0.136 | 0.249 | 0.432 |
| CC(=O)c1c(C)c2cnc(Nc3ccc(N4CCNCC4)cn3)nc2n(C2CCCC2)c1=O [Palbociclib] + Cc1c2c(nn1C)CSCc1cc(n(C)n1)CSc1cc(c3ccccc3c1)OCCCc1c(C(=O)O)n(C)c3c-2c(Cl)ccc13 [AZD5991] (first compound max 10 µM, 7x7, partner max 1 µM) | -0.0105 | -0.13 | -0.0394 | -0.0016 | -0.0163 | -0.0249 | 0.0478 | -0.0578 | -0.0561 | -0.0441 | -0.0609 | -0.0968 | -0.064 | -0.0047 | -0.0326 | -0.0553 | -0.0367 | 0.704 | 0.258 | 0.306 |
| Cn1cnc2c(F)c(Nc3ccc(Br)cc3Cl)c(C(=O)NOCCO)cc21 [Selumetinib] + CC(C)n1c(=O)n(C)c2cnc3cc(F)c(-c4ccc(OCCCN5CCCCC5)nc4)cc3c21 [AZD1390] (first compound max 10 µM, 7x7, partner max 0.3 µM) | -0.0429 | -0.0459 | -0.0669 | -0.0166 | 0.0134 | -0.0571 | 0.0447 | -0.0265 | -0.018 | -0.0122 | -0.0115 | -0.0235 | -0.0198 | 0.0154 | -0.0639 | -0.0387 | 0.0022 | 0.233 | 0.289 | 0.244 |
| CS(=O)(=O)CCNCc1ccc(-c2ccc3ncnc(Nc4ccc(OCc5cccc(F)c5)c(Cl)c4)c3c2)o1 [Lapatinib] + C[C@@H](Oc1cc(-c2cnn(C3CCNCC3)c2)cnc1N)c1c(Cl)ccc(F)c1Cl [Crizotinib] (first compound max 10 µM, 7x7, partner max 10 µM) | -0.0399 | -0.0065 | 0.0003 | -0.0438 | -0.0373 | -0.0775 | 0.0036 | -0.006 | -0.0394 | -0.0168 | -0.0378 | -0.0774 | -0.0407 | -0.0272 | -0.0437 | -0.0161 | -0.0358 | 0.76 | 0.811 | 0.489 |
| CN(C)CCCOc1ccc(-c2ccc3ncc4c(c3c2)n(C2CCOCC2)c(=O)n4C)cn1 [AZD0156] + CCN(CCO)CCCOc1ccc2c(Nc3cc(CC(=O)Nc4cccc(F)c4)[nH]n3)ncnc2c1 [AZD2811] (first compound max 1 µM, 7x7, partner max 1 µM) | -0.0273 | -0.005 | -0.0668 | 0.053 | -0.0142 | -0.0162 | 0.0392 | -0.0248 | -0.0083 | 0.0563 | -0.0245 | -0.0247 | -0.0261 | -0.0463 | -0.0766 | -0.01 | -0.0362 | 0.165 | 0.231 | 0.0974 |
| COc1nnc2ccc(N3CCC(c4ccc(OCCN5CCN(C)C(=O)[C@H]5C)cc4)CC3)nn12 [AZD5153] + C=CCn1c(=O)c2cnc(Nc3ccc(N4CCN(C)CC4)cc3)nc2n1-c1cccc(C(C)(C)O)n1 [AZD1775] (first compound max 1 µM, partner max 1 µM) | -0.0885 | -0.131 | -0.0421 | -0.0323 | -0.0546 | -0.0859 | -0.0319 | -0.0643 | -0.0583 | -0.0252 | -0.12 | -0.0278 | -0.0549 | -0.0427 | -0.0553 | 0.0107 | -0.0305 | 0.711 | 0.524 | 0.348 |
| CC1(C)CCC(CN2CCN(c3ccc(C(=O)NS(=O)(=O)c4ccc(NCC5CCOCC5)c([N+](=O)[O-])c4)c(Oc4cnc5[nH]ccc5c4)c3)CC2)=C(c2ccc(Cl)cc2)C1 [Venetoclax] + CN(C)CCCOc1ccc(-c2ccc3ncc4c(c3c2)n(C2CCOCC2)c(=O)n4C)cn1 [AZD0156] (first compound max 1 µM, 7x7, partner max 1 µM) | -0.0272 | -0.0377 | -0.024 | 0.0233 | -0.002 | -0.0344 | 0.0928 | -0.0452 | -0.0419 | -0.0102 | -0.0717 | -0.0437 | -0.052 | 0.0715 | -0.0201 | -0.0303 | -0.015 | 0.244 | 0.42 | 0.217 |
| COc1cc2c(cc1OCCCCCOc1cc3c(cc1OC)C(=O)N1C=C(C)C[C@H]1C=N3)N=C[C@@H]1CC(C)=CN1C2=O [SG3199] + O=C(c1cc(Cc2n[nH]c(=O)c3ccccc23)ccc1F)N1CCN(C(=O)C2CC2)CC1 [Olaparib] (first compound max 0.001 µM, 7x7, partner max 10 µM) | -0.009 | -0.0681 | -0.0545 | -0.015 | -0.0476 | -0.0366 | 0.018 | -0.0279 | -0.0291 | 0.0081 | -0.0155 | -0.0378 | -0.0462 | 0.025 | -0.0231 | -0.0205 | -0.0203 | 0.43 | 0.181 | 0.139 |
| COc1nnc2ccc(N3CCC(c4ccc(OCCN5CCN(C)C(=O)[C@H]5C)cc4)CC3)nn12 [AZD5153] + Cn1cnc2c(F)c(Nc3ccc(Br)cc3Cl)c(C(=O)NOCCO)cc21 [Selumetinib] (first compound max 1 µM, 7x7, partner max 10 µM) | -0.0593 | -0.0344 | -0.0332 | -0.008 | 0.0725 | 0.0157 | 0.085 | -0.0588 | -0.0197 | -0.0567 | -0.0421 | -0.0175 | 0.0264 | -0.0176 | 0.053 | -0.0489 | 0.002 | 0.535 | 0.389 | 0.457 |
| CC(=O)c1c(C)c2cnc(Nc3ccc(N4CCNCC4)cn3)nc2n(C2CCCC2)c1=O [Palbociclib] + Cn1cnc2c(F)c(Nc3ccc(Br)cc3Cl)c(C(=O)NOCCO)cc21 [Selumetinib] (first compound max 10 µM, 7x7, partner max 10 µM) | -0.0073 | -0.0393 | 0.0091 | 0.0184 | 0.0164 | -0.0235 | 0.193 | -0.0476 | -0.0404 | -0.0069 | -0.0353 | 0.0615 | 0.0354 | 0.005 | 0.0235 | -0.0361 | 0.0504 | 0.453 | 0.401 | 0.281 |
| NC1(C(=O)N[C@@H](CCO)c2ccc(Cl)cc2)CCN(c2ncnc3[nH]ccc23)CC1 [Capivasertib] + CCN(CCO)CCCOc1ccc2c(Nc3cc(CC(=O)Nc4cccc(F)c4)[nH]n3)ncnc2c1 [AZD2811] (first compound max 10 µM, 7x7, partner max 1 µM) | -0.0124 | 0.017 | -0.0671 | 0.0633 | 0.0297 | -0.0379 | -0.0569 | -0.104 | 0.0067 | 0.0286 | 0.0318 | -0.0833 | -0.0634 | -0.023 | -0.0055 | 0.0224 | -0.0307 | 0.293 | 0.459 | 0.304 |

Source: the supplement of paper PMC11061612
